Data as given in ChEMBL document CHEMBL1153457, “Effects of structural analogues of the substrate and allosteric regulator of the human mitochondrial NAD(P)+-dependent malic enzyme” (Bioorg Med Chem, 2009).
The source made the active and inactive calls. No cut-off for these calls is given here.

How the values were obtained:
Homo sapiens [1] = species on record: Homo sapiens; experiment: Inhibition of human mitochondrial NADP-ME E59L mutant expressed in Escherichia coli XL-1 assessed as residual enzyme activity by spectrophotometry in absence of fumarate
Homo sapiens [2] = species on record: Homo sapiens; experiment: Inhibition of human mitochondrial NADP-ME E59L mutant expressed in Escherichia coli XL-1 assessed as residual enzyme activity by spectrophotometry in presence of fumarate
Homo sapiens [3] = species on record: Homo sapiens; experiment: Activation of human mitochondrial NADP-ME E59L mutant expressed in Escherichia coli XL-1 by spectrophotometry

Row | Activity (Homo sapiens [1]) | Activity (Homo sapiens [2]) | Activity (Homo sapiens [3]) | Structure (SMILES)
1 | Active | Active |  | O=C(O)CC(=O)O
2 | Active | Active |  | O=C(O)/C=C\C(=O)O
3 | Active | Active |  | O=C(O)/C=C/CC(=O)O
4 |  |  | inactive | O=C(O)/C=C/C(=O)O
